Laboratory results as given in a compilation of properties of binary mixtures (doi:10.1021/acs.jced.9b00769).

Test: xn = mol fraction of the nth substance listed
Details: 100 kPa

OCCN(CCO)CCO + CCCCCCCCCCCC[P+](CC)(CC)CC.N#Cc1ccc[n-]1
x2 = 0
Details	viscosity [mPa·s]
293.15 K	940
298.15 K	611
303.15 K	413
313.15 K	204

OCCN(CCO)CCO + CCCC[P+](CC)(CC)CC.N#Cc1ccc[n-]1
x2 = 0
Details	viscosity [mPa·s]
293.15 K	940
298.15 K	611
303.15 K	413
313.15 K	204

CCCCCCCCCCCC[P+](CC)(CC)CC.N#Cc1ccc[n-]1 + OCCN(CCO)CCO
Details	electrical conductivity [S/m]	viscosity [mPa·s]
293.15 K, x1 = 0.003	0.0008	–
293.15 K, x1 = 0.005	0.0012	–
293.15 K, x1 = 0.007	0.0016	–
293.15 K, x1 = 0.008	0.0019	–
293.15 K, x1 = 0.013	0.0027	–
293.15 K, x1 = 0.017	0.0033	920
293.15 K, x1 = 0.02	0.0036	–
293.15 K, x1 = 0.025	0.0038	–
293.15 K, x1 = 0.042	0.0051	–
293.15 K, x1 = 0.051	0.0053	1009
293.15 K, x1 = 0.065	0.0056	–
293.15 K, x1 = 0.08	0.0058	–
293.15 K, x1 = 0.09	0.006	–
293.15 K, x1 = 0.091	–	1032
293.15 K, x1 = 0.116	0.0062	–
293.15 K, x1 = 0.117	–	1007
293.15 K, x1 = 0.145	–	920
293.15 K, x1 = 0.28	–	860
293.15 K, x1 = 0.285	0.0061	–
293.15 K, x1 = 0.404	0.0069	–
293.15 K, x1 = 0.512	0.0081	–
293.15 K, x1 = 0.687	–	840
293.15 K, x1 = 0.701	0.0141	–
293.15 K, x1 = 0.809	–	720
293.15 K, x1 = 1	0.0267	423
298.15 K, x1 = 0.017	–	608
298.15 K, x1 = 0.035	–	641
298.15 K, x1 = 0.091	–	680
298.15 K, x1 = 0.117	–	649
298.15 K, x1 = 0.145	–	610
298.15 K, x1 = 0.28	–	573
298.15 K, x1 = 0.473	–	583
298.15 K, x1 = 0.687	–	576
298.15 K, x1 = 1	–	310
303.15 K, x1 = 0.017	–	396
303.15 K, x1 = 0.051	–	418
303.15 K, x1 = 0.091	–	435
303.15 K, x1 = 0.117	–	423
303.15 K, x1 = 0.145	–	403
303.15 K, x1 = 0.207	–	389
303.15 K, x1 = 0.28	–	379
303.15 K, x1 = 0.473	–	395
303.15 K, x1 = 0.687	–	395
303.15 K, x1 = 0.809	–	353
303.15 K, x1 = 1	–	214
313.15 K, x1 = 0.017	–	181
313.15 K, x1 = 0.035	–	194
313.15 K, x1 = 0.091	–	198
313.15 K, x1 = 0.145	–	192
313.15 K, x1 = 0.28	–	183
313.15 K, x1 = 0.473	–	194
313.15 K, x1 = 0.687	–	199
313.15 K, x1 = 0.809	–	184
313.15 K, x1 = 1	–	114

CCCCCCCCCCCC[P+](CCCC)(CCCC)CCCC.N#Cc1ccc[n-]1 + OCCN(CCO)CCO
Details	electrical conductivity [S/m]	viscosity [mPa·s]
293.15 K, x1 = 0.003	0.0006	–
293.15 K, x1 = 0.004	0.0008	–
293.15 K, x1 = 0.005	0.0011	–
293.15 K, x1 = 0.007	0.0014	–
293.15 K, x1 = 0.01	0.0019	–
293.15 K, x1 = 0.017	–	980
293.15 K, x1 = 0.022	0.003	–
293.15 K, x1 = 0.027	0.0032	–
293.15 K, x1 = 0.042	0.0036	–
293.15 K, x1 = 0.054	0.0038	1054
293.15 K, x1 = 0.075	0.0041	–
293.15 K, x1 = 0.177	0.0038	1025
293.15 K, x1 = 0.244	0.0039	970
293.15 K, x1 = 0.325	0.0041	930
293.15 K, x1 = 0.431	0.0043	830
293.15 K, x1 = 0.755	0.0057	680
298.15 K, x1 = 0.017	–	654
298.15 K, x1 = 0.054	–	680
298.15 K, x1 = 0.096	–	690
298.15 K, x1 = 0.121	–	690
298.15 K, x1 = 0.177	–	680
298.15 K, x1 = 0.244	–	646
298.15 K, x1 = 0.431	–	569
298.15 K, x1 = 0.538	–	532
303.15 K, x1 = 0.035	–	435
303.15 K, x1 = 0.096	–	452
303.15 K, x1 = 0.121	–	450
303.15 K, x1 = 0.177	–	450
303.15 K, x1 = 0.244	–	432
303.15 K, x1 = 0.431	–	391
303.15 K, x1 = 0.538	–	370
313.15 K, x1 = 0.017	–	205
313.15 K, x1 = 0.035	–	205
313.15 K, x1 = 0.054	–	208
313.15 K, x1 = 0.121	–	216
313.15 K, x1 = 0.177	–	219
313.15 K, x1 = 0.244	–	211
313.15 K, x1 = 0.431	–	200
313.15 K, x1 = 0.538	–	194
313.15 K, x1 = 0.755	–	182
313.15 K, x1 = 1	–	166

CCCC[P+](CC)(CC)CC.N#Cc1ccc[n-]1 + OCCN(CCO)CCO
Details	electrical conductivity, 293.15 K [S/m]	viscosity, 293.15 K [mPa·s]	viscosity, 298.15 K [mPa·s]	viscosity, 303.15 K [mPa·s]	viscosity, 313.15 K [mPa·s]
x1 = 0.002	0.0007	–	–	–	–
x1 = 0.007	0.0017	–	–	–	–
x1 = 0.009	0.0022	–	–	–	–
x1 = 0.018	0.0036	960	–	410	188
x1 = 0.023	0.0041	–	–	–	–
x1 = 0.029	–	–	633	408	184
x1 = 0.047	0.0055	–	–	–	–
x1 = 0.059	0.0059	1010	660	426	191
x1 = 0.089	0.0068	970	636	410	185
x1 = 0.104	–	940	614	397	177
x1 = 0.123	0.0077	–	–	–	–
x1 = 0.223	–	–	530	–	155
x1 = 0.272	0.0115	–	–	–	–
x1 = 0.413	–	680	439	284	136
x1 = 0.508	–	647	426	–	132
x1 = 0.537	0.0248	–	–	–	–
x1 = 0.763	0.0489	478	318	210	106
x1 = 1	0.147	187	137	104	62
